According to patent publication US20220195481A1, “MITOCHONDRIAL RESPIROMETRY IN FROZEN SPECIMENS” (The Regents of the University of Califormia, priority 2019, published 2022):
Square brackets hold non-standard residues; d marks the D form. Peptide text beside a SMILES is read from it. Phe(ol) = N[C@H](CO)Cc1ccccc1; Aib = CC(C)(N)C(=O)O

Tests used:
SH-SY5Y cells = test: Respirometry (oxygen consumption rate, Seahorse XF96) in frozen SH-SY5Y cells; assay type: cell-based, human; conditions: MAS supplemented with 10 μg/mL Alamethicin and 100 μg/mL cytochrome c vs MAS alone; FIG. 8
Experimental: (§1) All procedures are performed at 4° C. All equipment, solutions, and consumables are pre-chilled. • 1. Re-suspend sample in 20 μL MAS buffer. Load 5 technical replicates of each condition. Leave at least 4 empty wells to determine background signal. • 2. To adhere mitochondrial particles to the bottom of the plate, centrifuge the loaded plate at 2,000×g for 5 min at 4° C. using plate carrier rotating buckets. […] After centrifugation, adjust the total volume of the wells to 150 uL by adding 130 uL MAS assay buffer per well. Supplement MAS buffer with 1-200 μg/mL cytochrome c and 1-500 μg/mL Alamethicin if maximal respiration is not reached on MAS alone. To avoid disrupting mitochondrial adherence to the bottom of the plate, add MAS using multichannel pipette pointed at a 45° angle to the top of well chamber, as instructed by the manufacturer. • 4. Incubate the plate at 37° C. in a non-CO2 incubator for 5 minutes. • 5. Insert plate into XF96 and begin assay protocol. Measure oxygen consumption rate (OCR) before and after every injection. Mix, wait, and measure times can vary between 1-7 minutes and 1-5 repetitions.
1. SH-SY5Y cells were cultured according to ATCC instructions. 2. When the cells reached 80% confluency, they were trypsinized, counted, spun down, washed in PBS, and frozen. 3. Cells were thawed on ice and re-suspended in MAS. 4. […]

[1] = tested on: frozen murine liver tissue homogenate; test: Respirometry (oxygen consumption rate, Seahorse XF96) in frozen murine liver homogenate; conditions: MAS supplemented with 100 μg/mL cytochrome c vs MAS alone; NADH and TMPD/Ascorbate injections; FIG. 3
Experimental: as §1
1. Homogenate was prepared from previously frozen murine liver tissue in MAS using glass/Teflon dounce homogenizer. The preparation was centrifuged at 1,000×g for 5 minutes at 4° C. and the supernatant transferred to a new tube. 2. […]

CC(=O)NC(C)(C)C(=O)N1CCC[C@H]1C(=O)NC(C)(C)C(=O)N[C@@H](C)C(=O)NC(C)(C)C(=O)N[C@@H](C)C(=O)N[C@@H](CCC(N)=O)C(=O)NC(C)(C)C(=O)N[C@H](C(=O)NC(C)(C)C(=O)NCC(=O)N[C@@H](CC(C)C)C(=O)NC(C)(C)C(=O)N1CCC[C@H]1C(=O)N[C@H](C(=O)NC(C)(C)C(=O)NC(C)(C)C(=O)N[C@@H](CCC(=O)O)C(=O)N[C@@H](CCC(N)=O)C(=O)N[C@H](CO)Cc1ccccc1)C(C)C)C(C)C [Alamethicin] (Ac-[Aib]P[Aib]A[Aib]AQ[Aib]V[Aib]GL[Aib]PV[Aib][Aib]EQ[Phe(ol)])
respiration in frozen cultured human bone marrow neuroblastoma cell line (SH-SY5Y cells): Enhances Respiration

cytochrome c
respiration in frozen tissue homogenates [1]: enhances respiration
